Values joined by “and” are separate entries in the source; they are usually repeats but may differ in a detail not shown here. Identical values can stand only once.
How the values were obtained:
murine epidermis = experiment: Epidermal DNA synthesis, [3H]-thymidine incorporation in vivo; parameters: species or system mouse
Protocol: To assess the effects of a topical β-glucocerebrosidase inhibitor, conduritol-B-epoxide (CBE) in epidermal DNA synthesis two slightly different dosage protocols have been employed. In all cases, mice were treated topically with 20 μl to 40 μl of 250 nmol/μl CBE bid for 2-5 days on the right flank. On the last day, the mice were injected intraperitoneally with ^3H-thymidine (1 μCi/G body weight) diluted 1:10 in 100-200 μl isotonic NaCl. After one hour the mice were sacrificed. Whole skin was excised and subcutaneous fascia and fat were removed by scraped. Skin samples were placed dermis side downward onto 10 mM EDTA in phosphate buffered saline (PBS-CMF; pH 7.4) and incubated at 37° C. for 40 min. The skin was blotted dry with a tissue and epidermis removed by scraping with a surgical blade. The epidermis was minced into small pieces and placed in microcentrifuge vials. Samples were immediately snap frozen and stored in liquid nitrogen until immediately prior to preparation of the epidermal homogenates. 300 μl of 10 mM EDTA in PBS-CMF (pH 7.4) was added to all samples which then underwent tissue homogenization using Polytron (15 sec, ×2 on ice. Polytron tip was rinsed between each homogenization with 400 μl 10 mM EDTA in PBS-CMF. Rinses were combined with same original samples. Samples were sonicated twice for 10 sec on ice. 100 μl of 20% TCA was added and left for 10 min at 4° C. Samples were centrifuged at 2000×g at 4° C. for 5 min. The supernatant was discarded. 500 μl of 5% TCA was added and the samples were centrifuged at 2000×g at 4° C. for 5 min. The supernatant was discarded and this step was repeated again. The precipitate was resuspended in 1ml of 1N NaOH and vortexed. 400 μl or NaOH plus 400 μl of 1N HCl with 8ml Ecolume was used as a background blank. Vials were counted the following day.
We next determined whether the topical administration of structurally similar but less efficient β-glucosidase inhibitors would induce epidermal hyperproliferation. Animals were treated topically twice daily with either Conduritol-B-epoxide, Conduritol B (CB), or deoxynojirimycin (dNJM), each at 40 μl of 250 nmol/μl twice daily, as described in Example 10. After 24 hours, [^3H]-thymidine was injected intraperitoneally and incorporation of thymidine into DNA was determined (FIG. 26 A&B). […] This reduced activity is a result of the relative availability of these inhibitors to in vivo tissues.
Animals were treated as described in Example 10.
We next determined whether occlusion with a vapor-impermeable membrane would enhance the effects of a β-glucocerebrosidase inhibitor on epidermal DNA synthesis. […] After 24 hrs animals were injected with [^3H]-thymidine, and incorporation into DNA was determined (Proksch, et. al., J. Clin. Invest. 87:1668-1673, 1991).

[1] = tested on: cultured human keratinocytes; experiment: [3H]-thymidine incorporation and DNA content in cultured human keratinocytes; assay type: cell-based; conditions: for DNA content / thymidine incorporation: 24 hours of treatment, Cer 5 or 10 μM, FIG. 9
Protocol: To determine the ability of exogenous glucosylceramides (GlcCER) to stimulate epidermal proliferation, we applied various concentrations of GlcCER to cultural human keratinocytes (third passage). Keratinocytes were isolated from human neonatal foreskins by a modification of the method of Pittelkow, M. R. and Scott, R. E. ( (1986) Proc. Mayo Clin. 61:771-777) Cells were added to 100 mm plastic Petri dishes at a density of 1 to 2×10^4 cells/cm^2, and grown initially in 10mls of Keratinocyte Growth Medium (KGM) (Clonetics, San Diego, Calif.) with 0.07 mM calcium. The cultures were maintained at 35° C. under 5% CO2 in air, with medium changes performed three times weekly. After the cells reached 70%-80% confluence, they were switched to KGM medium containing 1.2 mM calcium, and harvested at one week post-confluence. GlcCER was added for the last 24 hours of culture and ^3H-thymidine (1 μCi/ml) was added one-to-three hours prior to harvesting of cells for measurement of DNA synthesis and DNA content. (Proksch, E., et al., J. Clin. Invest. 87:1668-1673 (1991).
Using the method described in Example 5, incorporation of [^3H]-thymidine and total DNA content were measured in cultured human keratinocytes (CHK) grown in serum-free keratinocyte growth medium (KGM) supplemented with 0.07 mM .calcium. Cultured cell were further supplemented as indicated, with ceramide (Cer; 5 or 10 μM), glucosylceramide (GlcCER; 1.25 or 2.5 μM), or a combination of ceramide and glucosylceramide (10 and 1.25 μM, respectively).
(§1) CHK cells were grown in serum-free KGM supplemented both with 0.07 mM calcium and 10 μM ceramide (CER). Increasing concentrations of glucosylceramide were added (2.5 to 10 μM), and both [^3H]-thymidine (1 μCi/ml) and [^14C]-leucine (1 μCi/ml) incorporation assays were performed.
CHK cells were grown (as in Example 6)in serum-free KGM (0.07 mM calcium) and supplemented with increasing concentrations of ceramide (CER) alone (dark bars), glucosylceramide (GlcCer) alone (back row), or the combination of ceramide (10 μM) with increasing glucosylceramide (front row). […] Glucosylceramide alone again stimulated thymidine incorporation (>20%) at low concentrations (1.25 and 2.5 μM).
CHK cells were grown (as in Example 6) in serum-free KGM ([…]) supplemented with glucosylceramide (GlcCER) alone, or in combination with the β-glucocerebrosidase-inhibitor, CBE (3 or 10 μM) (FIG. 12). Incorporation of [^3H]-thymidine was measured at 24 hours following supplementation, and values are reported as percent of unsupplemented controls (mean ±S.D.; n>6). […] A low CBE concentration (3 μM) was ineffective.

[2] = tested on: acetone treated skin sites; experiment: Barrier recovery of acetone treated skin sites; assay type: in vivo, mouse; conditions: MUX 0.5 or 1.0 %(wt:vol) topical
CHK cells = experiment: [14C]-leucine incorporation in CHK cells; assay type: cell-based, human; conditions: GlcCER 2.5 and 5.0 μM with 10 μM ceramide; FIG. 10
Protocol: as §1

[3] = topical 40 μl of 250 nmol/μl twice daily, after 24 hours
[4] = direct application of lipid alone, treated as in Example 10, FIG. 26B
[5] = GlcCER 1.25 μM, 24 hours, NHK cells, n=6±S.E.

Compound: OC[C@H]1NC[C@H](O)[C@@H](O)[C@@H]1O [dNJM, deoxynojirimycin]
- epidermal DNA synthesis ([3H]-thymidine incorporation) (murine epidermis; [3]): Neither CB or dNJM at this concentration induced an increase in DNA synthesis

Compound: ceramide
- DNA content ([1]; GlcCER 1.25 μM): corresponding decrease in DNA content
- thymidine incorporation ([1]; GlcCER 1.25 μM): inhibited thymidine incorporation
- [3H]-thymidine incorporation, of control ([1]; ceramide alone 10 μM, FIG. 11): 35 % of control
- inhibition of [3H]-thymidine incorporation ([1]; ceramide alone 10 μM, FIG. 11): approximately 65%
- epidermal DNA synthesis ([3H]-thymidine incorporation) (murine epidermis; [4]): Neither GalCER nor ceramide (CER) alone at this concentration (c.f. structures in FIGS. 4 and 6) induced an increase

Compound: O[C@H]1[C@H](O)[C@@H](O)C=C[C@@H]1O [CB, Conduritol B]
- epidermal DNA synthesis ([3H]-thymidine incorporation) (murine epidermis; [3]): Neither CB or dNJM at this concentration induced an increase in DNA synthesis

Compound: Cc1cc(=O)oc2cc(O[C@@H]3OC[C@@H](O)[C@H](O)[C@H]3O)ccc12 [MUX, 4-methylumbelliferyl xyloside]
- barrier-disrupting effect [2]: comparable to the two conduritol is compounds (BrCBE and CBE)
- barrier recovery ([2]; at 2, 4 and 6 hours): delayed barrier recovery

Compound: glucosylceramide [GlcCER]
- leucine incorporation (CHK cells): not altered
- keratinocyte proliferation, further increase ([1]; 5 μM): No further increase
- DNA content ([1]; GlcCER 1.25 μM): increased
- thymidine incorporation ([1]; GlcCER 1.25 μM): increased
- thymidine incorporation, increase over ceramide alone ([1]; GlcCER 1.25 μM co-administered with ceramide 10 μM, 24 hours): approximately 2 fold
- DNA Content (% of Control) [1, 5]: 124 ± 2 % of Control and 111 ± 6 % of Control
- ^3H]-Thym. Incorporation (% of control) [1, 5]: 118 ± 0.5 % of control and 117 ± 2.0 % of control
- override of the ceramide effect on thymidine incorporation ([1]; GlcCER 10 μM with 10 μM ceramide): did not override the ceramide effect
- thymidine incorporation relative to ceramide-containing control ([1]; GlcCER 2.5 and 5.0 μM with 10 μM ceramide, FIG. 10): stimulated
- concentration of maximum effect on keratinocyte proliferation ([1]; cultured human keratinocytes, 24 hours): 1.25 µM
- inhibitory effect of ceramide on thymidine incorporation ([1]; glucosylceramide 1.25 μM coadministered with ceramide 10 μM): reversed
- stimulation of thymidine incorporation ([1]; glucosylceramide alone, 1.25 and 2.5 μM): > 20%
- proliferation rates ([1]; higher concentrations of GlcCER (above 1.25 and 2.5 μM)): decreased
- epidermal DNA synthesis, combination of GlcCER with CBE (murine epidermis; FIG. 26B): additive effect
- epidermal DNA synthesis ([3H]-thymidine incorporation) (murine epidermis; [4]): significant increase

Compound: galactosylceramide [GalCER]
- epidermal DNA synthesis ([3H]-thymidine incorporation) (murine epidermis; [4]): Neither GalCER nor ceramide (CER) alone at this concentration (c.f. structures in FIGS. 4 and 6) induced an increase

Source: US6399580B1, “Methods and compositions for stimulating tissue growth and epithelial moisturization” (The Regents of the University of California, priority 1994, dated 2002)
